The values that follow are results of earlier work, collected in patent publication US10779570B2, “Aerosol from tobacco” (PHILIP MORRIS PRODUCTS S.A., priority 2013, dated 2020).

The conditions of the first data set: biomarker of exposure in urine.
With `CC(=O)N[C@@H](CSC(C)CCO)C(=O)O` (stereo partly drawn) [3-Hydroxy-1-methylpropyl-mercapturic acid], the “Biomarker t1/2β” value was 48 h.

Still in this data set, the particulars now being: biomarker of exposure in urine, plasma or blood.
Turning to `Nc1ccc2ccccc2c1` [2-Aminonaphthalene], the “Biomarker t1/2β” value is listed as 9 h.

For the molecule `CC(=O)N[C@@H](CSCCC#N)C(=O)O` [2-Cyanoethylmercapturic acid], the “Biomarker t1/2β” value is recorded as 17 h.

Take `CC(=O)N[C@@H](CSCCO)C(=O)O` [2-Hydroxyethyl-mercapturic acid]: the “Biomarker t1/2β” value was 5 h.

Regarding `CC(=O)N[C@@H](CSCCCO)C(=O)O` [3-Hydroxypropyl-mercapturic acid], the “Biomarker t1/2β” value was 10 h.

With `Nc1ccc(-c2ccccc2)cc1` [4-Aminobiphenyl], the “Biomarker t1/2β” value is recorded as 26 h.

As for `O=NN1CCC[C@H]1c1cccnc1` [NNN, N-nitrosonornicotine], the “Biomarker t1/2β” value is on record as 15 h.

For S-benzyl-mercapturic acid, the “Biomarker t1/2β” value was 9 h.

The conditions of the next data set: smoke constituent.
`C=CC=C` [1,3-Butadiene]: the “Organ Class toxicity” value was “CA, RT, RDT”.

Turning to `C=CC=O` [Acrolein], the “Organ Class toxicity” value was “RT, CT”.

As for `C=CC#N` [Acrylonitrile], the “Organ Class toxicity” value was “CA, RT”.

For the molecule `c1ccccc1` [Benzene], the “Organ Class toxicity” value is recorded as “CA, CT, RDT”.

For the molecule `[C-]#[O+]` [Carbon monoxide], the “Organ Class toxicity” value is reported as “RDT, CT”.

Consider `C1CO1` [Ethylene Oxide], for which the “Organ Class toxicity” value is on record as “CA, RT, RDT”.

For `Cc1ccccc1` [Toluene], the “Organ Class toxicity” value is “RT, RDT”.
